Laboratory results: US7947701B2, “Dual molecules containing peroxy derivative, the synthesis and therapeutic applications thereof” (Sanofi-Aventis, priority 2003, dated 2011)
Like-named read-outs stand apart in the source and are kept apart here.

Columns and labels:
[1] = tested on: P. falciparum FcM29-Cameroon strain; test: Antimalarial chemosensitivity test (radioactive micromethod, tritiated hypoxanthine incorporation) on FcM29-Cameroon strain; format: cell-based; conditions: Plasmodium falciparum, Erythrocyte, read-out: IC50 (concentration required to inhibit parasite growth by 50%)
Method: (§1) The P. falciparum strains are cultured continuously according to the method of Trager and Jensen (Science, 1976, 193, 673-675): the parasites are maintained in human red blood cells (O±), diluted to a blood parasite level of 2% in RPMI 1640 medium supplemented with 25 mM of Hepes+24 mM NaHCO3+2 mM L-glutamine and with 5% of human serum of all groups. The parasites are incubated at 37° C. in a humid atmosphere and at 5% CO2.
The antimalarial activity tests are carried out according to the radioactive micromethod of Desjardins et al. (Antimicrob. Agents Chemother., 1979, 16, 710-718). Each molecule is tested in triplicate. The assays are carried out in 96-well microplates. The P. falciparum strains are cultured in solutions of RPMI 1640 supplemented with 5% of human serum with a haematocrit at 2% and a blood parasite level at 1.5%. For each assay, the parasites are incubated with decreasing concentrations of the test compounds for 48 h at 37° C., in a humid atmosphere and at 5% CO2. Artemisinin and chloroquine diphosphate are used as reference molecules. The first dilution of the test compounds is effected at 1 mg/ml in dimethyl sulphoxide. The dilution range for the successive daughter solutions is also prepared in dimethyl sulphoxide. Each daughter dilution is then diluted to 1/50th in RPMI 1640 supplemented with 5% of human serum, all the dilutions being carried out at 37° C. These dilutions are then added to the parasites in culture in the microplates. After addition of the test compound, the parasites are cultured in RPMI 1640 containing 5% of human serum and 1% of dimethyl sulphoxide. The parasite growth is measured by incorporation of tritiated hypoxanthine (added 24 h after the beginning of exposure to the test compound) and compared to the incorporation in the absence of the test compound (taken as 100%). The IC50 values (concentrations required to inhibit parasite growth by 50%) are determined by plotting the percentage inhibition as a function of the logarithm of the dose, using the GraphPad Prism 4® processing software (GraphPad Software Inc., 5755 Oberlin Drive, #110, San Diego, Calif. 92121, USA).

[2] = tested on: P. falciparum FcB1-Columbia strain; test: Antimalarial chemosensitivity test (radioactive micromethod, tritiated hypoxanthine incorporation) on FcB1-Columbia strain; format: cell-based; conditions: Plasmodium falciparum, read-out: IC50 (concentration required to inhibit parasite growth by 50%)
Method: as §1
The antimalarial activity tests are carried out according to the radioactive micromethod of Desjardins et al. (Antimicrob. Agents Chemother., 1979, 16, 710-718). Each molecule is tested in triplicate. The assays are carried out in 96-well microplates. The P. falciparum strains are cultured in solutions of RPMI 1640 supplemented with 5% of human serum with a haematocrit at 2% and a blood parasite level at 1.5%. For each assay, the parasites are incubated with decreasing concentrations of the test compounds for 48 h at 37° C., in a humid atmosphere and at 5% CO2. Artemisinin and chloroquine diphosphate are used as reference molecules. The first dilution of the test compounds is effected at 1 mg/ml in dimethyl sulphoxide. […] The parasite growth is measured by incorporation of tritiated hypoxanthine (added 24 h after the beginning of exposure to the test compound) and compared to the incorporation in the absence of the test compound (taken as 100%). […]

Compound	IC50 ([1]; 48 h)	IC50 ([2]; Erythrocyte, FcB1-Columbia strain (moderately chloroquine resistant), in human red blood cells, 48 h incubation)	IC50 ([1]; FcM29-Cameroon strain (very strongly chloroquine resistant), in human red blood cells, 48 h incubation)	IC50 ([2]; FCB1, Erythrocyte, 48 h)
CC(C)C1=C[C@H]2OC3(CCN(CCCNc4ccnc5cc(Cl)ccc45)CC3)OO[C@@]2(C)CC1 [PA1011]	13 nM			
CN(C)c1ccc2nccc(NCCN3CCC4(CC3)OOC3(O4)C4CC5CC(C4)CC3C5)c2c1 (stereo not shown) [PA1026, N^4-[2-(1H-Dispiro[piperidine-4,3,-[1,2,4]trioxolane-5′,2″-tricyclo[3.3.1.1^3,7]decan]-1-yl)ethyl]-N^6,N^6-dimethylquinoline-4,6-diamine]	4.4 nM			
C[C@@H]1CC[C@H]2[C@@H](C)C(=O)O[C@@H]3O[C@@]4(C)CC[C@@H]1[C@]32OO4 [artemisinin]		11 nM	5 nM	
Clc1ccc2c(NCCN3CCC4(CC3)OOC3(O4)C4CC5CC(C4)CC3C5)ccnc2c1 (stereo not shown) [PA1021, 7-Chloro-N-[2-(1H-dispiro[piperidine-4,3′-[1,2,4]trioxolane-5′,2″-tricyclo[3.3.1.1^3,7]decan]-1-yl)ethyl]quinolin-4-amine]	6 nM			
CCN(CC)CCCC(C)Nc1ccnc2cc(Cl)ccc12 (stereo not shown) [chloroquine]	258 nM			66 nM
